{"source": "patent US20110197373A1", "about": "“Depilatory Article” (priority 2010, published 2011)", "test_system": "unwanted hair on skin", "experiment": "removal of hair from the skin with the depilatory article / thioglycolate salts", "format": "in vivo, human", "conditions": "thioglycolate salt as keratin reducing agent", "method": "A second aspect being a method of removing hair from the skin is also provided by the present invention, comprising the steps of: • (a) applying a depilatory article according to the present invention to a surface of skin, preferably human skin, • (b) leaving said depilatory article in contact with the skin for a period of at least 1 minute, preferably 2 to 10 minutes, more preferably 2 to 8 minutes, • (c) removing said depilatory article from the surface of the skin, and • (d) preferably rubbing, scraping, rinsing or wiping the surface of the skin in the area to which the depilatory article was applied. The formulation was disposed to a thickness of 0.3 mm, width of 1.5 cm and length of 3.5 cm on a cast HDPE 85% LLDPE 15% polymer blend film (23 microns in thickness and cut to 4.6 cm in length and 3.2 cm in width) using a stencil and wiper blade, such that the area covered by the formulation was centered along the width of the film and 1 mm away from the perimeter edge of one end of the film's length.", "data": [{"smiles": "O=C([O-])CS.[K+]", "note": "[potassium thioglycolate]", "values": [{"measurement": "effectiveness at removing hair from the skin", "result": "effective at removing hair from the skin, even at low doses"}]}]}
